Measurements taken from the supplement of paper PMC10307832.

Columns and labels:
Test in all cases: relative viability (nuclei count vs DMSO), 5 days (fraction); higher = more cells survive
[1] = compound: CN1CCN(CC1)C2=CC(=C(C=C2)NC3=NC(=C(S3)C(=O)C4=C(C=CC=C4Cl)Cl)N)OC [XMD14-99] + O=C(c1cc(Cc2n[nH]c(=O)c3ccccc23)ccc1F)N1CCN(C(=O)C2CC2)CC1 [Olaparib] (partner 8 µM)
Summary of the method: (§1)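 Cells from lung cancer lines were seeded into 1536-well plates and, one day later, dosed by pin tool. Treatments were either a single drug or a fixed dose of an anchor drug with five library-drug doses (not always all listed) in √10 steps. After 5 days, nuclei were stained in a one-step fixation (final 0.05% Triton X-100, 1% formaldehyde, 1 ug/ml Hoechst) and counted on 4× images, and relative viability is the treated-to-vehicle nuclei ratio, as the median of duplicate plates.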

[2] = compound: N[C@@H]1CCCN(c2c(/C=C3\SC(=O)NC3=O)cccc2-c2ccccc2)C1 [AZD1208] + CC(=O)Nc1cccc(-n2c(=O)n(C3CC3)c(=O)c3c(Nc4ccc(I)cc4F)n(C)c(=O)c(C)c32)c1 [Trametinib] (partner 0.02 µM)
Summary of the method: as §1

[3] = compound: N[C@@H]1CCCN(c2c(/C=C3\SC(=O)NC3=O)cccc2-c2ccccc2)C1 [AZD1208] + COc1cccc2cc(-c3nc([C@H]4CC[C@H](C(=O)O)CC4)n4ncnc(N)c34)[nH]c12 [OSI-027] (partner 0.5 µM)
Summary of the method: as §1

[4] = compound: N[C@@H]1CCCN(c2c(/C=C3\SC(=O)NC3=O)cccc2-c2ccccc2)C1 [AZD1208] + C[C@@H](Oc1cc(-c2cnn(C3CCNCC3)c2)cnc1N)c1c(Cl)ccc(F)c1Cl [Crizotinib] (partner 1 µM)
Summary of the method: as §1

Cell Line	relative viability ([1]; first compound 0.08 µM)	relative viability ([1]; first compound 0.8 µM)	relative viability ([1]; first compound 2.53 µM)	relative viability ([1]; first compound 8 µM)	relative viability ([2]; first compound 0.08 µM)	relative viability ([2]; first compound 0.253 µM)	relative viability ([2]; first compound 0.8 µM)	relative viability ([2]; first compound 2.53 µM)	relative viability ([2]; first compound 8 µM)	relative viability ([3]; first compound 0.08 µM)	relative viability ([3]; first compound 0.253 µM)	relative viability ([3]; first compound 0.8 µM)	relative viability ([3]; first compound 2.53 µM)	relative viability ([3]; first compound 8 µM)	relative viability ([4]; first compound 0.08 µM)	relative viability ([4]; first compound 0.253 µM)	relative viability ([4]; first compound 0.8 µM)	relative viability ([4]; first compound 2.53 µM)	relative viability ([4]; first compound 8 µM)
LK-2	0.751	0.591	0.685	0.419	0.574	0.502	0.511	0.445	0.474	0.184	0.155	0.157	0.123	0.144	0.28	0.211	0.212	0.275	0.252
NCI-H2228	0.776	0.603	0.706	0.273	0.578	0.669	0.36	0.525	0.343	0.5	0.586	0.406	0.308	0.304	0.327	0.501	0.399		0.427
NCI-H322M	0.807	0.8	0.75	0.617	0.49	0.487		0.566	0.578	0.569	0.514	0.459	0.508	0.462	1.14	0.972	0.975	0.607	0.974
NCI-H1975	0.705	0.861	0.743	0.522	0.304	0.341	0.283	0.36	0.249	0.682	0.688	0.68	0.758	0.594	0.925	1.03	0.991	0.933	0.915
NCI-H1944	0.448	0.404	0.397	0.283	0.402	0.433	0.359	0.328	0.283	0.407	0.341	0.305	0.282	0.249	1.14	1.16	0.985	1.01	0.827
LU99A	0.304	0.263	0.19	0.135	0.574	0.575	0.515	0.508	0.446	0.295	0.29	0.291	0.264	0.238	0.517	0.541	0.519	0.488	0.446
NCI-H2405	0.839	0.918	0.758	0.723	0.582	0.56	0.562	0.528	0.453	0.52	0.575	0.56	0.607	0.532	0.831	0.86	0.782	0.81	0.838
NCI-H2023	0.442		0.311	0.122	0.601	0.55	0.416	0.506	0.394	0.342	0.339	0.324	0.316	0.253	0.618	0.514	0.563	0.6	0.446
HCC-15	0.688	0.661	0.706	0.441	0.381	0.338	0.326	0.312	0.296	0.63	0.673	0.491	0.467	0.437	0.849	0.788	0.707	0.752	0.641
HCC-44	1.08	1.01	1.01	0.956	1.1	1.12	1.02	1.1	1.05	0.504	0.496	0.512	0.331	0.485	0.828	0.905	0.788	0.879	0.82
NCI-H1299	0.929	0.969	0.935	0.742											0.958	1	0.933	0.969	0.963
ABC-1	0.696	1.03	0.737	0.673						0.417	0.444	0.487	0.377	0.436	1.03	1.23	1.11	1.09	1.11
NCI-H1793	0.818	0.915	0.782	0.622	0.356	0.566	0.33	0.473	0.342	0.244	0.254	0.268	0.31	0.25					
NCI-H1648	0.95	0.433	0.654	0.316	0.588	0.441	0.435	0.402	0.497	0.246	0.244	0.268	0.244	0.274					
NCI-H1563										0.721	0.708	0.704	0.695	0.596	0.877	0.81	0.928	0.924	0.8
A549	0.471	0.377	0.311	0.27											0.819	0.847	0.54	0.661	0.541
NCI-H522	0.586	0.808	0.594	0.557	0.686	0.663	0.55	0.635	0.677	0.771	0.575	0.618	0.691	0.701					
NCI-H1623										0.445	0.38	0.406	0.366	0.431					
SW 900	0.831	0.845	0.766	0.525	0.721	0.941	0.697	0.641	0.708	0.678	0.578	0.398	0.439	0.438					
NCI-H1395	0.475	0.472	0.47	0.364	1.03	1.08	0.932	1.01	0.878	0.624	0.569	0.578	0.624	0.491					
IA-LM	0.943	0.691	0.68	0.352											0.827	0.724	0.797	0.669	0.748
EBC-1	0.771	0.635	0.646	0.382											0.19	0.171	0.174	0.165	0.183
